Source: ChEMBL document CHEMBL1201862, “PubChem BioAssay data set” (2004)
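Five compound concentrations were applied to cells in 96-well plates for 48 hours; endpoints were derived by simple linear interpolation of the resulting dose-response curve. At the GI50, growth is halved.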 Activity calls are given as the source filed them. Rule as the data show it: active = GI50 up to about 1.1 µM and inactive = higher.

Experiments:
Experiment in all cases: NCI tumour cell line growth inhibition, 48 h
HOP-92 = test system: HOP-92
DU-145 = test system: DU-145
SW-620 = test system: SW-620
HL-60 = test system: HL-60
786-0 = test system: 786-0
CCRF-CEM = test system: CCRF-CEM
A498 = test system: A498
KM12 = test system: KM12
HOP-62 = test system: HOP-62
OVCAR-4 = test system: OVCAR-4
MDA-MB-435 = test system: MDA-MB-435
LOX IMVI = test system: LOX IMVI
Hs-578T = test system: Hs-578T
MCF7 = test system: MCF7
PC-3 = test system: PC-3
SN12C = test system: SN12C
U-251 = test system: U-251
UO-31 = test system: UO-31
SK-MEL-28 = test system: SK-MEL-28
SF-539 = test system: SF-539
BT-549 = test system: BT-549
COLO 205 = test system: COLO 205
OVCAR-8 = test system: OVCAR-8
CAKI-1 = test system: CAKI-1
SR = test system: SR
UACC-257 = test system: UACC-257
T47D = test system: T47D
MOLT-4 = test system: MOLT-4
SK-MEL-2 = test system: SK-MEL-2
MDA-N = test system: MDA-N
RXF 393 = test system: RXF 393
SNB-75 = test system: SNB-75
M14 = test system: M14
K562 = test system: K562
NCI-H522 = test system: NCI-H522
RPMI-8226 = test system: RPMI-8226
ACHN = test system: ACHN
SNB-19 = test system: SNB-19
A549 = test system: A549
NCI-H460 = test system: NCI-H460
SK-MEL-5 = test system: SK-MEL-5
HCT-116 = test system: HCT-116
EKVX = test system: EKVX
OVCAR-5 = test system: OVCAR-5
NCI-H226 = test system: NCI-H226
HCT-15 = test system: HCT-15
UACC-62 = test system: UACC-62
SF-295 = test system: SF-295
SF-268 = test system: SF-268
NCI/ADR-RES = test system: NCI/ADR-RES
OVCAR-3 = test system: OVCAR-3
HCC 2998 = test system: HCC 2998
TK-10 = test system: TK-10
HT-29 = test system: HT-29
Malme-3M = test system: Malme-3M
IGROV-1 = test system: IGROV-1
NCI-H23 = test system: NCI-H23
SK-OV-3 = test system: SK-OV-3

For `COC(=O)c1ccccc1/C=C1\Cc2cc(C)c(C)cc2C1=O`, the GI50 (HOP-92) was 21.2 µM (inactive), the GI50 (DU-145) was > 100 µM (inactive) and the GI50 (SW-620) was > 100 µM (inactive). For the same compound, the GI50 (HL-60) was > 100 µM (inactive), the GI50 (786-0) was 54.8 µM (inactive) and the GI50 (CCRF-CEM) was > 100 µM (inactive). For the same compound, the GI50 (A498) was 73.3 µM (inactive), the GI50 (KM12) was > 100 µM (inactive) and the GI50 (HOP-62) was 30.4 µM (inactive). The GI50 (OVCAR-4) was > 100 µM (inactive), the GI50 (MDA-MB-435) was > 100 µM (inactive) and the GI50 (LOX IMVI) was > 100 µM (inactive). The GI50 (Hs-578T) was 40.7 µM (inactive), the GI50 (MCF7) was > 100 µM (inactive) and the GI50 (PC-3) was > 100 µM (inactive). For the same compound, the GI50 (SN12C) was > 100 µM (inactive), the GI50 (U-251) was 27.1 µM (inactive) and the GI50 (UO-31) was 84.1 µM (inactive). For the same compound, the GI50 (SK-MEL-28) was > 100 µM (inactive), the GI50 (SF-539) was > 100 µM (inactive) and the GI50 (BT-549) was 34.5 µM (inactive). The GI50 (COLO 205) was > 100 µM (inactive), the GI50 (OVCAR-8) was 55.7 µM (inactive) and the GI50 (CAKI-1) was > 100 µM (inactive). For the same compound, the GI50 (SR) was > 100 µM (inactive), the GI50 (UACC-257) was > 100 µM (inactive) and the GI50 (T47D) was > 100 µM (inactive). For the same compound, the GI50 (MOLT-4) was > 100 µM (inactive), the GI50 (SK-MEL-2) was 14 µM (inactive) and the GI50 (MDA-N) was > 100 µM (inactive). The GI50 (RXF 393) was 89.1 µM (inactive), the GI50 (SNB-75) was 26.5 µM (inactive) and the GI50 (M14) was > 100 µM (inactive). For the same compound, the GI50 (K562) was > 100 µM (inactive), the GI50 (NCI-H522) was 73.8 µM (inactive) and the GI50 (RPMI-8226) was > 100 µM (inactive). For the same compound, the GI50 (ACHN) was > 100 µM (inactive), the GI50 (SNB-19) was 33.4 µM (inactive) and the GI50 (A549) was > 100 µM (inactive). The GI50 (NCI-H460) was > 100 µM (inactive), the GI50 (SK-MEL-5) was > 100 µM (inactive) and the GI50 (HCT-116) was > 100 µM (inactive). For the same compound, the GI50 (EKVX) was > 100 µM (inactive), the GI50 (OVCAR-5) was > 100 µM (inactive) and the GI50 (NCI-H226) was 49 µM (inactive). The GI50 (HCT-15) was > 100 µM, the GI50 (UACC-62) was > 100 µM (inactive) and the GI50 (SF-295) was 49.3 µM (inactive). For the same compound, the GI50 (SF-268) was 40.3 µM (inactive), the GI50 (NCI/ADR-RES) was > 100 µM (inactive) and the GI50 (OVCAR-3) was > 100 µM (inactive). The GI50 (HCC 2998) was > 100 µM (inactive), the GI50 (TK-10) was 36.9 µM (inactive) and the GI50 (HT-29) was > 100 µM (inactive). For the same compound, the GI50 (Malme-3M) was > 100 µM (inactive) and the GI50 (IGROV-1) was > 100 µM (inactive).
For `COc1cc(/C=N/Nc2nnc3c4ccccc4c4ncccc4c3n2)cc(OC)c1OC`, the GI50 (DU-145) was 3.31 µM (inactive), the GI50 (NCI-H23) was 2.57 µM (inactive) and the GI50 (HL-60) was 3.62 µM (inactive). For the same compound, the GI50 (786-0) was 5.83 µM (inactive), the GI50 (CCRF-CEM) was 2.63 µM (inactive) and the GI50 (KM12) was 9.29 µM (inactive). The GI50 (OVCAR-4) was 6.46 µM (inactive), the GI50 (MDA-MB-435) was 5.12 µM (inactive) and the GI50 (Hs-578T) was 4.74 µM (inactive). The GI50 (U-251) was 4.21 µM (inactive), the GI50 (UO-31) was 3.39 µM (inactive) and the GI50 (SF-539) was 3.71 µM (inactive). The GI50 (BT-549) was 6.22 µM (inactive), the GI50 (OVCAR-8) was 2.23 µM (inactive) and the GI50 (SR) was 3.37 µM (inactive). For the same compound, the GI50 (UACC-257) was 1.97 µM (inactive), the GI50 (T47D) was 1.21 µM (inactive) and the GI50 (MOLT-4) was 2.9 µM (inactive). The GI50 (MDA-N) was 1.61 µM (inactive), the GI50 (RXF 393) was 4.72 µM (inactive) and the GI50 (SNB-75) was 3.82 µM (inactive). For the same compound, the GI50 (M14) was 8.51 µM (inactive), the GI50 (K562) was 3.17 µM (inactive) and the GI50 (NCI-H522) was 2.47 µM (inactive). The GI50 (ACHN) was 5.85 µM (inactive), the GI50 (SNB-19) was 6.71 µM (inactive) and the GI50 (A549) was 2.79 µM (inactive). The GI50 (NCI-H460) was 0.728 µM (active), the GI50 (SK-MEL-5) was 4.31 µM (inactive) and the GI50 (EKVX) was 9.82 µM (inactive). For the same compound, the GI50 (OVCAR-5) was 5.13 µM (inactive), the GI50 (NCI-H226) was 3.01 µM (inactive) and the GI50 (SF-295) was 3.49 µM (inactive). For the same compound, the GI50 (SF-268) was 6.58 µM (inactive), the GI50 (OVCAR-3) was 3.53 µM (inactive) and the GI50 (TK-10) was 4.28 µM (inactive). For the same compound, the GI50 (HT-29) was 2.02 µM (inactive) and the GI50 (IGROV-1) was 1.04 µM (active).
With `CCOC(=O)CCC(C(=O)OCC)n1nnc2cc(Nc3c(C)[n+]([O-])c4cc(Cl)ccc4[n+]3[O-])ccc21` (centres undefined) the GI50 (HOP-92) was 67.9 µM (inactive), the GI50 (DU-145) was > 100 µM (inactive) and the GI50 (SW-620) was 88.7 µM (inactive). For the same compound, the GI50 (NCI-H23) was 60.5 µM (inactive), the GI50 (HL-60) was 41.3 µM (inactive) and the GI50 (786-0) was 59.2 µM (inactive). For the same compound, the GI50 (CCRF-CEM) was 35.6 µM (inactive), the GI50 (A498) was > 100 µM (inactive) and the GI50 (KM12) was > 100 µM (inactive). The GI50 (HOP-62) was 46.8 µM (inactive), the GI50 (OVCAR-4) was 77.4 µM (inactive) and the GI50 (MDA-MB-435) was > 100 µM (inactive). For the same compound, the GI50 (LOX IMVI) was 69.2 µM (inactive), the GI50 (Hs-578T) was > 100 µM (inactive) and the GI50 (MCF7) was 28.2 µM (inactive). For the same compound, the GI50 (PC-3) was > 100 µM (inactive), the GI50 (SN12C) was 96.6 µM (inactive) and the GI50 (U-251) was 80.4 µM (inactive). The GI50 (UO-31) was 72.6 µM (inactive), the GI50 (SF-539) was 95.5 µM (inactive) and the GI50 (BT-549) was > 100 µM (inactive). The GI50 (COLO 205) was 41.7 µM (inactive), the GI50 (OVCAR-8) was > 100 µM (inactive) and the GI50 (CAKI-1) was 93.3 µM (inactive). For the same compound, the GI50 (UACC-257) was 40.1 µM (inactive), the GI50 (T47D) was 47.2 µM (inactive) and the GI50 (MOLT-4) was 49.1 µM (inactive). The GI50 (SK-MEL-2) was 77.8 µM (inactive), the GI50 (MDA-N) was > 100 µM (inactive) and the GI50 (RXF 393) was 53.6 µM (inactive). For the same compound, the GI50 (SNB-75) was 89.3 µM (inactive), the GI50 (M14) was 44.6 µM (inactive) and the GI50 (K562) was 59.2 µM (inactive). For the same compound, the GI50 (NCI-H522) was > 100 µM (inactive), the GI50 (RPMI-8226) was 37.2 µM (inactive) and the GI50 (ACHN) was 46.2 µM (inactive). The GI50 (SNB-19) was > 100 µM (inactive), the GI50 (A549) was > 100 µM (inactive) and the GI50 (NCI-H460) was 48.3 µM (inactive). The GI50 (SK-MEL-5) was 49.8 µM (inactive), the GI50 (HCT-116) was 47.9 µM (inactive) and the GI50 (EKVX) was 14.2 µM (inactive). For the same compound, the GI50 (OVCAR-5) was 62.8 µM (inactive), the GI50 (NCI-H226) was 32.9 µM (inactive) and the GI50 (SK-OV-3) was > 100 µM (inactive). The GI50 (HCT-15) was 43.9 µM, the GI50 (UACC-62) was 55.7 µM (inactive) and the GI50 (SF-295) was 68.5 µM (inactive). The GI50 (SF-268) was 38.4 µM (inactive), the GI50 (NCI/ADR-RES) was 35.1 µM (inactive) and the GI50 (OVCAR-3) was 40.2 µM (inactive). For the same compound, the GI50 (TK-10) was > 100 µM (inactive), the GI50 (HT-29) was 76 µM (inactive) and the GI50 (Malme-3M) was > 100 µM (inactive). The GI50 (IGROV-1) was > 100 µM (inactive).
